The text below walks through data of patent publication US8846951B2 (AbbVie Inc., priority 2009, dated 2014).

The target of one experiment is T1, 5HT2B receptors (Homo sapiens, UniProt P41595).
T1 construct: expressed in transfected cells; host or cells: CHO-K1 cells
Kind of experiment: Human 5-HT2B functional high throughput screening assay in CHO-K1 cells (calcium flux). It is filed as cell-based. The note with it: for pEC50: CHO-K1 cells, calcium flux. In outline:
(§1)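 Frozen CHO-K1 cells overexpressing the receptor were plated, serum-starved overnight, then loaded with Ca4 dye plus 2.5 mM probenecid for 60 min at room temperature. FLIPR fluorescence (ex 480/em 530 nm, 25 °C) after compound addition was normalized to serotonin; EC50 and Emax came from 4-parameter logistic fits.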
On the technique in general: A change in cytosolic calcium serves as a functional read-out for many receptors and channels.

Another experiment deals with T2, 5HT2C receptors (Homo sapiens, UniProt P28335).
T2 sequence (P28335 33-458): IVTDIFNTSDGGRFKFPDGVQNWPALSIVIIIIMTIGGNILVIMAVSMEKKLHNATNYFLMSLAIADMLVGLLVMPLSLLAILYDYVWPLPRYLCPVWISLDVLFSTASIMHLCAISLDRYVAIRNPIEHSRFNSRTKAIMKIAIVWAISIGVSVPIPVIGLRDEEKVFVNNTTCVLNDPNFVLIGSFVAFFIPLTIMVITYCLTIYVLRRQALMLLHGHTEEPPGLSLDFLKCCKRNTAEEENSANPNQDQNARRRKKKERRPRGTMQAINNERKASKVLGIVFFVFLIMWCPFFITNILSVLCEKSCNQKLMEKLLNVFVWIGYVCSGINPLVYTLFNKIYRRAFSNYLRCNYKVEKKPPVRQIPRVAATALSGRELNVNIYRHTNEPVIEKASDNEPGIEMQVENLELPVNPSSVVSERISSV
Nature of the experiment: Human 5-HT2C functional high throughput screening assay in CHO-K1 cells (calcium flux). It is filed as cell-based. Also on record: expressed in transfected cells; host or cells: CHO-K1 cells. The settings on record: for Emax: CHO-K1, 5-HT2C, maximum functional response as percentage relative to the effect of serotonin; for pEC50: CHO-K1 cells, calcium flux. The gist of the method:
as §1

Where [1] appears, read: 5-HT2B, maximum functional response as percentage relative to the effect of serotonin.
Setting [2] is: 5-HT2B agonist activity, read-out: EC50.
Where [3] appears, read: 5-HT2C agonist activity, read-out: EC50.

pEC50: −log10 of the molar value. Like-named read-outs stand apart in the source and are kept apart here.

The term Emax denotes the maximal effect, on the per cent scale that the assay sets. As usually defined, the pEC50 is −log10 of the EC50, conventionally taken in molar units.

T1 sequence (P41595 whole entry): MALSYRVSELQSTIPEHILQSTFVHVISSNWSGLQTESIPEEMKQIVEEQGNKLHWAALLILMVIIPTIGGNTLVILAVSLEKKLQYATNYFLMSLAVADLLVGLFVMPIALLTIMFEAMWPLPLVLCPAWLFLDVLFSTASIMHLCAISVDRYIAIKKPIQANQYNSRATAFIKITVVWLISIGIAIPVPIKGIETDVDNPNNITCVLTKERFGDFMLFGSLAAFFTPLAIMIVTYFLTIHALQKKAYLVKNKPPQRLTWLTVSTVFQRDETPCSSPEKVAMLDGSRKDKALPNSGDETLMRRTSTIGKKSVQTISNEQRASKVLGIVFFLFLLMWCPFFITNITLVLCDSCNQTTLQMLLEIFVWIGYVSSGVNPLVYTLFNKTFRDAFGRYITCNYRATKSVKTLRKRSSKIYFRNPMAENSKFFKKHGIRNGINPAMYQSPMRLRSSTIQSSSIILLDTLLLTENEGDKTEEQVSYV

As for `CN1C[C@@H]2CNC[C@H]2c2ccc(F)cc2C1=O` [Example 226, (3aS,10bR)-8-Fluoro-5-methyl-1,2,3,3a,4,5-hexahydrobenzo[c]pyrrolo[3,4-e]azepin-6(10bH)-one], the maximal response (Emax) result was “inactive” at 5HT2B receptors (setting [1]) and > 120% at 5HT2C receptors. For the same compound, the negative-log EC50 (pEC50) at 5HT2B receptors (EC50, 5-HT2B agonist activity) was < 5.00.
Consider `COc1c(C)cc(-c2ccc3c(c2)C(=O)NC[C@@H]2CN(C)C[C@@H]32)cc1C` (relative stereo) [Example 317, Trans-8-(4-methoxy-3,5-dimethylphenyl)-2-methyl-2,3,3a,4,5,10b-hexahydropyrrolo[3,4-d][2]benzazepin-6(1H)-one], for which the pEC50 was < 5.00 at 5HT2B receptors (setting [2]) and 7.15 at 5HT2C receptors (setting [3]). The results for the maximum response (Emax) result at 5HT2B receptors (setting [1]) and at 5HT2C receptors (read-out: Emax) were “inactive” and 75%, respectively.
In the same order, the values of `CCS(=O)(=O)c1cccc(-c2ccc3c(c2)C(=O)NC[C@@H]2CNC[C@@H]32)c1` (relative stereo) [Example 250, Trans-8-(3-(ethylsulfonyl)phenyl)-1,2,3,3a,4,5-hexahydrobenzo[c]pyrrolo[3,4-e]azepin-6(10bH)-one] are < 5.00, 8.52, “inactive” and 105%.
As for `Fc1ccc(F)c2c1OCC[C@H]1CNC[C@@H]21` (relative stereo) [Example 288, Cis-7,10-difluoro-2,3,3a,4,5,10b-hexahydro-1H-[1]benzoxepino[4,5-c]pyrrole], the maximal effect (Emax) was found to be 50% on 5HT2B receptors (CHO-K1) and 90% on 5HT2C receptors. Also, the pEC50 on 5HT2B receptors (EC50, 5-HT2B agonist activity) is 6.15; at 5HT2C receptors (EC50, 5-HT2C agonist activity), 7.40.
As to `CN1C[C@@H]2CNC(=O)c3cc(OCc4c(F)ccc(F)c4F)ccc3[C@H]2C1` [Example 213, (3aS,10bS)-2-Methyl-8-(2,3,6-trifluorobenzyloxy)-1,2,3,3a,4,5-hexahydrobenzo[e]pyrrolo[3,4-c]azepin-6(10bH)-one], the pEC50 at 5HT2B receptors (setting [2]) was < 5.00; at 5HT2C receptors (setting [3]) it was 9.00. Also, the values for the maximum response (Emax) result on 5HT2B receptors (setting [1]) and on 5HT2C receptors (read-out: Emax) were “inactive” and > 120%, respectively.
Consider `C[C@H](Oc1ccc2c(c1)C(=O)NC[C@@H]1CNC[C@@H]21)c1ccccc1` (mixture of isomers) [Example 155, Trans-8-((S)-1-phenylethoxy)-1,2,3,3a,4,5-hexahydrobenzo[e]pyrrolo[3,4-c]azepin-6(10bH)-one], for which the results for the Emax result on 5HT2B receptors (setting [1]) and on 5HT2C receptors were “inactive” and > 120%, respectively. Also, the pEC50 on 5HT2B receptors (EC50, 5-HT2B agonist activity) was < 5.00; on 5HT2C receptors (EC50, 5-HT2C agonist activity), 7.30.
On to `CN1C[C@H]2CNC(=O)c3c(OC(F)(F)F)cccc3[C@@H]2C1` [Example 112, (3aR,10bR)-2-Methyl-7-(trifluoromethoxy)-1,2,3,3a,4,5-hexahydrobenzo[c]pyrrolo[3,4-e]azepin-6(10bH)-one], for which the maximum response (Emax) result on 5HT2B receptors (setting [1]) is “inactive”; at 5HT2C receptors it was 90%. The negative-log EC50 (pEC50) on 5HT2B receptors (EC50, 5-HT2B agonist activity) was < 5.00.
`CN1C[C@H]2CNC(=O)c3cc(-c4ccc(F)cc4)ccc3[C@@H]2C1` [Example 116, (3aR,10bR)-8-(4-Fluorophenyl)-2-methyl-1,2,3,3a,4,5-hexahydrobenzo[e]pyrrolo[3,4-c]azepin-6(10bH)-one]: the negative-log EC50 (pEC50) at 5HT2B receptors (setting [2]) is < 5.00. Further, the maximum response (Emax) result was “inactive” at 5HT2B receptors (setting [1]) and 90% on 5HT2C receptors (read-out: Emax).
As for `Cc1c(Cl)cccc1S(=O)(=O)N1Cc2cccnc2[C@@H]2CNC[C@H]2C1` (relative stereo) [Example 342, Trans-6-[(3-chloro-2-methylphenyl)sulfonyl]-5,6,7,7a,8,9,10,10a-octahydropyrido[3,2-c]pyrrolo[3,4-e]azepine], the pEC50 is 6.52 on 5HT2B receptors (setting [2]) and 7.22 on 5HT2C receptors (setting [3]). Moreover, the Emax amounted to 40% on 5HT2B receptors (CHO-K1, 5-HT2B, maximum functional response as percentage relative to the effect of serotonin, read-out: Emax) and 90% at 5HT2C receptors (read-out: Emax).
For the compound `CN1C[C@@H]2CCOc3c(-c4cccnc4)cccc3[C@H]2C1` (relative stereo) [Example 370, Trans-2-methyl-7-(pyridin-3-yl)-2,3,3a,4,5,10b-hexahydro-1H-[1]benzoxepino[4,5-c]pyrrole], the negative logarithm of the EC50 (pEC50) on 5HT2B receptors (setting [2]) is < 5.00; at 5HT2C receptors (setting [3]) it was 6.40. For the same compound, the Emax entry at 5HT2B receptors (setting [1]) was “inactive”; on 5HT2C receptors it was 90%.
With `CN1C[C@@H]2CNC[C@H]2c2ccc(-c3cccc(CCO)c3)cc2C1=O` (relative stereo) [Example 189, Trans-8-(3-(2-hydroxyethyl)phenyl)-5-methyl-1,2,3,3a,4,5-hexahydrobenzo[e]pyrrolo[3,4-c]azepin-6(10bH)-one], the pEC50 at 5HT2B receptors (setting [2]) was < 5.00; on 5HT2C receptors (setting [3]) it was 9.05. Moreover, the figures for the Emax entry at 5HT2B receptors (setting [1]) and at 5HT2C receptors (read-out: Emax) were “inactive” and > 120%, respectively.
Take `COc1ccc(-c2ccc3c(c2)C(=O)NC[C@H]2CN(C)C[C@H]32)cc1Cl` [Example 319, (3aS,10bS)-8-(3-Chloro-4-methoxyphenyl)-2-methyl-2,3,3a,4,5,10b-hexahydropyrrolo[3,4-d][2]benzazepin-6(1H)-one]: the negative logarithm of the EC50 (pEC50) at 5HT2B receptors (setting [2]) is < 5.00; on 5HT2C receptors (setting [3]) it was 8.22. Further, the results for the maximal response (Emax) result at 5HT2B receptors (setting [1]) and at 5HT2C receptors (read-out: Emax) were “inactive” and 90%, respectively.
In the same order, the values of `CN1C[C@H]2CN(C)C(=O)c3cc(-c4cccc(C(C)(C)O)c4)ccc3[C@@H]2C1` (relative stereo) [Example 194, Trans-8-(3-(2-hydroxypropan-2-yl)phenyl)-2,5-dimethyl-1,2,3,3a,4,5-hexahydrobenzo[e]pyrrolo[3,4-c]azepin-6(10bH)-one] are < 5.00, 7.70, “inactive” and > 120%.
On to `COc1cccc2c1[C@H]1CN(C)C[C@@H]1CCO2` (relative stereo) [Example 273, Trans-10-methoxy-2-methyl-2,3,3a,4,5,10b-hexahydro-1H-[1]benzoxepino[4,5-c]pyrrole], for which the maximal response (Emax) is 35% at 5HT2B receptors (CHO-K1) and > 120% at 5HT2C receptors. The pEC50 at 5HT2B receptors (EC50, 5-HT2B agonist activity) is 7.00; at 5HT2C receptors (EC50, 5-HT2C agonist activity), 8.00.
As to `CN1C[C@H]2CNC(=O)c3cc(-c4ccc5c(c4)C(=O)CC5)ccc3[C@@H]2C1` (relative stereo) [Example 251, Trans-2-methyl-8-(3-oxo-2,3-dihydro-1H-inden-5-yl)-1,2,3,3a,4,5-hexahydrobenzo[c]pyrrolo[3,4-e]azepin-6(10bH)-one], the pEC50 on 5HT2B receptors (setting [2]) is < 5.00; on 5HT2C receptors (setting [3]) it was 6.40. In addition, the Emax entry at 5HT2B receptors (setting [1]) was “inactive”; at 5HT2C receptors (read-out: Emax) it was > 120%.
`O=C1NC[C@@H]2CNC[C@H]2c2sccc21` (relative stereo) [Example 104, Trans-6,6a,7,8,9,9a-hexahydropyrrolo[3,4-e]thieno[3,2-c]azepin-4(5H)-one]: the values for the pEC50 at 5HT2B receptors (setting [2]) and on 5HT2C receptors (setting [3]) were < 5.00 and 6.05, respectively. Also, the Emax entry is “inactive” at 5HT2B receptors (setting [1]) and > 120% at 5HT2C receptors.
On to `Clc1cccc2c1OCC[C@H]1CNC[C@@H]21` (relative stereo) [Example 295, Cis-7-chloro-2,3,3a,4,5,10b-hexahydro-1H-[1]benzoxepino[4,5-c]pyrrole], for which the maximal response (Emax) on 5HT2B receptors (CHO-K1) was found to be 40%; on 5HT2C receptors it was 100%. The pEC50 at 5HT2B receptors (EC50, 5-HT2B agonist activity) was 7.22; on 5HT2C receptors (EC50, 5-HT2C agonist activity), 8.00.
For the compound `COc1ccc(CCOc2ccc3c(c2)C(=O)NC[C@@H]2CNC[C@@H]32)cc1` (relative stereo) [Example 175, Trans-8-(4-methoxyphenethoxy)-1,2,3,3a,4,5-hexahydrobenzo[e]pyrrolo[3,4-c]azepin-6(10bH)-one], the pEC50 was < 5.00 at 5HT2B receptors (setting [2]) and 8.22 at 5HT2C receptors (setting [3]). For the same compound, the Emax entry at 5HT2B receptors (setting [1]) is “inactive”; on 5HT2C receptors (read-out: Emax) it was > 120%.
In the case of `Clc1ccc2c(c1)[C@H]1CNC[C@@H]1CCO2` [Example 233, (3aR,10bS)-9-Chloro-2,3,3a,4,5,10b-hexahydro-1H-[1]benzoxepino[4,5-c]pyrrole], the Emax at 5HT2B receptors (CHO-K1) was 55%; on 5HT2C receptors, > 120%.
Turning to `O=C1NC[C@H]2CNC[C@@H]2c2ccc(OCc3ccccc3F)cc21` [Example 179, (3aR,10bS)-8-(2-Fluorobenzyloxy)-1,2,3,3a,4,5-hexahydrobenzo[e]pyrrolo[3,4-e]azepin-6(10bH)-one], the maximal effect (Emax) entry on 5HT2B receptors (setting [1]) was “inactive”; on 5HT2C receptors, > 120%. Besides, the pEC50 was < 5.00 on 5HT2B receptors (EC50, 5-HT2B agonist activity) and 9.52 at 5HT2C receptors (EC50, 5-HT2C agonist activity).
For `COc1ccccc1-c1ccc2c(c1)C(=O)NC[C@@H]1CN(C)C[C@@H]21` (relative stereo) [Example 137, Trans-8-(2-methoxyphenyl)-2-methyl-1,2,3,3a,4,5-hexahydrobenzo[e]pyrrolo[3,4-c]azepin-6(10bH)-one], the pEC50 was < 5.00 at 5HT2B receptors (setting [2]) and 7.00 on 5HT2C receptors (setting [3]). The Emax entry on 5HT2B receptors (setting [1]) is “inactive”; on 5HT2C receptors (read-out: Emax), > 120%.
